Here are results for eight compounds from patent US7112610B2, “Methods for using amino acids with affinity for the α2δ-protein” (Warner-Lambert Company LLC, priority 2003, dated 2006).

Series [1] has as its target T1, α2δ-subunit of a calcium channel (Sus scrofa, UniProt A0A287BIN3).
T1 construct: the α2δ-subunit derived from porcine brain tissue was used; from tissue; host or cells: porcine brain tissue
Briefly: radioligand binding assay using [3H]-gabapentin. As to conditions: α2δ-subunit derived from porcine brain tissue. From the text: The ability of compounds of the present invention to bind to the α2δ-subunit of a calcium channel can be determined using the following binding assay.
The radioligand binding assay using [^3H]-gabapentin and the α2δ-subunit derived from porcine brain tissue was used (See, Gee, Nicolas S et al. “The novel anticonvulsant drug, gabapentin (Neurontin), binds to the α2δ subunit of a calcium channel”. J. Biol. Chem. (1996), 271 (10), 5768–76). Compounds of the invention bind with nanomolar to micromolar affinity for the α2δ protein.

Each structure is given as a SMILES string. Counter-ions that a name gives are not always drawn.

T1 sequence (A0A287BIN3 25-1109): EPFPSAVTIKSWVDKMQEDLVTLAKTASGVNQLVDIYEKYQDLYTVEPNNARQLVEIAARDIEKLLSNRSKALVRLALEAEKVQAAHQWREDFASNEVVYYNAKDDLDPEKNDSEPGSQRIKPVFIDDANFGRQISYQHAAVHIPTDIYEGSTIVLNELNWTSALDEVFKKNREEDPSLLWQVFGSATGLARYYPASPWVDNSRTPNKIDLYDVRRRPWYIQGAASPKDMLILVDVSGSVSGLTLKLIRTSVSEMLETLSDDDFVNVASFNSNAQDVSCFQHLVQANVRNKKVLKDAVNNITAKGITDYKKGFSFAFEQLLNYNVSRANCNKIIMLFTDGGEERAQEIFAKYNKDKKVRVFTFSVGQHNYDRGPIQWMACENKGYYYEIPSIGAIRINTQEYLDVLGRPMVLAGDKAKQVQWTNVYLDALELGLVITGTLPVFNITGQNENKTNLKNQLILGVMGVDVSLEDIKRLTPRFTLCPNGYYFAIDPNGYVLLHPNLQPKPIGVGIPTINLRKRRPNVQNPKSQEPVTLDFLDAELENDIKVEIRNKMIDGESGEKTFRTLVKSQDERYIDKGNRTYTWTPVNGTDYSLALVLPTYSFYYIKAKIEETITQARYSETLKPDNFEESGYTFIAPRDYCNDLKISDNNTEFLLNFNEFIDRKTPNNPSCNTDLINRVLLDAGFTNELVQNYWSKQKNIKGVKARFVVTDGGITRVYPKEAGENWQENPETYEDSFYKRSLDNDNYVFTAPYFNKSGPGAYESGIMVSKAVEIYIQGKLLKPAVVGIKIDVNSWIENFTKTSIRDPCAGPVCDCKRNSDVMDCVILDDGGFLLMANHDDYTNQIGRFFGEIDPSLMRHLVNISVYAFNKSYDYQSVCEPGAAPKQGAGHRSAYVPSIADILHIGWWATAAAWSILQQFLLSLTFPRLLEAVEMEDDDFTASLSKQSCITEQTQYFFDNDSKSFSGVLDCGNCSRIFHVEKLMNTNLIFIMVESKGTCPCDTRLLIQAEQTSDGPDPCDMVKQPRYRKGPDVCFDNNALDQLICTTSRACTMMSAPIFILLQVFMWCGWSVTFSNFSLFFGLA

For the compound `CCC[C@@H](C)C[C@H](CN)C(=O)O` (as salt: hydrochloride) [(2R,4R)-2-Aminomethyl-4-methyl-heptanoic Acid], the melting point was in the range of 226.3 to 228 °C.
Regarding `CCC[C@H](C)C[C@H](N)CC(=O)O` [(3S,5S)-3-amino-5-methyl-octanoic acid], the “affinity to the α2δ protein” value in series [1] amounted to 1000 nM.
In turn, `CCCC(C)(C)C[C@H](N)CC(=O)O` (as salt: hydrochloride) gave a melting point of 194.2 to 195.2 °C.
The compound `CCCC[C@@H](C)C[C@H](N)CC(=O)O` (as salt: hydrochloride) registered a melting point of 142.5 to 143.3 °C.
In the case of `CCC[C@@H](C)C[C@H](CN)C(=O)O` [(2R,4R)-2-Aminomethyl-4-methyl-heptanoic Acid], the “affinity to the α2δ protein” value in series [1] is recorded as 29 nM.
`CCC[C@@H](C)C[C@H](N)CC(=O)O.Cl` gave a melting point of 142.5 to 142.7 °C.
In the case of `CC(C)CCCC(C)C[C@@H](N)CC(=O)O` (stereo partly drawn) [R-3-amino-5,9-dimethyl-decanoic acid], the “affinity to the α2δ protein” value in series [1] is 527 nM.
Regarding `CCCC(C)(C)CC(CN)C(=O)O.Cl` (stereo not drawn) [2-Aminomethyl-4,4-dimethyl-heptanoic Acid Hydrochloride], the melting point fell in the range of 229.5 to 231 °C. The “affinity to the α2δ protein” value in series [1] is reported as 83 nM.
